Measured values: patent US9301923B2, “Lipids, lipid compositions, and methods of using them” (NOVARTIS AG, priority 2009, dated 2016)

How the values were obtained:
[1] = pKa of the lipid by TNS fluorescence; format: physicochemical; settings: pKa
Method in brief: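 Lipid dissolved in ethanol (2 mM stock) and measured with TNS across eight buffers of differing pH, in water at standard temperature and pressure. Normalized fluorescence intensity plotted against pH and points joined by a smooth line to derive pKa, precise to about 0.2 units.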

[2] = tested on: Factor VII; experiment: Factor VII activity assay, in vivo liver delivery of FVII siRNA LNP; parameters: species or system mouse; settings: dose 3 mg/kg siRNA i.v., ~48 h
Method in brief: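 Female CD-1 mice (~25 g) given a single i.v. tail-vein dose of FVII siRNA in LNPs (cationic, stealth, neutral lipids), dosed as mg siRNA/kg. Plasma collected ~48 h post-injection; FVII activity read against a standard curve from pooled vehicle-control plasma.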

[3] = Particle size and PDI by dynamic light scattering (Malvern Zetasizer); format: physicochemical
Method in brief: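 Nanoparticles diluted in PBS to a count rate of about 200-400 kcts and measured by dynamic light scattering; size given as intensity-weighted average diameter, with polydispersity index from the same measurement.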

[4] = tested on: PLK-1 mRNA in Hep3B tumors; experiment: Hep3B tumor study, PLK-1 mRNA KD in tumor tissue; format: in vivo, human; settings: Hep3B tumor, mouse, i.v., LNP composition as in the source
Source text: Formulated siRNAs are made up of double stranded siRNA sequences specific to a target mRNA sequence, and are in the form of lipid nucleotid particles (LNPs) containing cationic lipids, stealth lipids and neutral lipids, as provided in the Examples below. The siRNA construct for use in targeting the liver is specific to Factor VII. The siRNA construct for use in targeting tumors is specific to PLK1-424, which is published by Judge et al., See, J Clin Invest. 2009 March; 119(3):661-73; doi: 10.1172/JCI37515). • 1. FVII siRNA duplex sequence
Hep3B tumors are established in female nude mice by sc injection of 7×10^6 cells in 100 ul PBS into the left flank. Mice are randomized into treatment groups 10-14 days after seeding as tumors reached an average size of 100 mm^3. siRNA formulated LNP formulations are administered at various dose levels intravenously via the lateral tail vein calculated on a mg siRNAs/kg basis according to individual animal weights (10 ml/kg injection volume). Mice are euthanized by CO2 inhalation at various time points and the tumors are harvested for mRNA quantitation. Lipids with a wide range of pKa (5.3-6.6) are used in the LNP formulations. Tumors are measured in 2 dimensions (width×length) to assess tumor growth using digital calipers. Tumor volume is calculated using the equation [a×b×b/2], where a equals the largest diameter and b equals the smallest diameter.
About 30-50 mg tumor tissue is homogenized in tissue lysis buffer in a Qiagen homogenizer followed by centrifugation to clarify lysates. Total RNA is isolated using RNeasy isolation kit (catalog number 74106) according to the manufacture's protocol. PLK-1 mRNA is analyzed by quantitative PCR and normalized to human GAPDH. Applied Biosystems human PLK-1 gene expression assay Hs00983229_m1 and human GAPDH endogenous control cat number 4326317E are used for mRNA detection.
The pKa in all tables refers to the pKa of the cationic lipid. Where multiple doses are indicated (e.g., 3×5), the first number indicates the number of doses given and the second number indicates the amount per dose in mg siRNA (biologically active agent) per kg mouse. In general the multiple doses are administered at 24 hour intervals, and tissues for mRNA quantitation are harvested 24 hours after the last dose.

[5] = lipid/DSPC/CHOL/AVANTI 880150P 50/28/18/4, N/P 3.43
[6] = lipid/no neutral lipid/CHOL/AVANTI 880150P 50/0/46/4, N/P 3.43
[7] = LNP formulation with PLK1 siRNA, helper, neutral and stealth lipid, molar ratio and N/P as in the table

Structure (SMILES) | pKa [1] | PLK1 inhibition % ([4]; 1 × 1 mg siRNA/kg) | Final size (nm) [3, 7] | further results
CCCCC/C=C\C/C=C\CCCCCCCCOCC(CN1CCC(C)CC1)OCCOCCO[C@H]1CC[C@@]2(C)C(=CC[C@H]3[C@@H]4CC[C@H]([C@H](C)CCCC(C)C)[C@@]4(C)CC[C@@H]32)C1 (some centres unmarked) [E0008] | 5.81 | 38% |  | FVII inhib % [2, 5]: 73%; FVII inhib % [2, 6]: 84.5%; Final size (nm) ([3]; LNP formulation with PLK1 siRNA, helper, neutral and stealth lipid, molar ratio and N/P as in the table, stealth lipid S004, molar ratio 60/38/2, N/P 4): 123.1 nm; Final size (nm) ([3]; LNP formulation with PLK1 siRNA, helper, neutral and stealth lipid, molar ratio and N/P as in the table, stealth lipid S011, molar ratio 60/38/2, N/P 4): 93.11 nm; Final size (nm) [3, 5]: 85 nm; PDI [3, 5]: 0.168; Final size (nm) [3, 6]: 84 nm; PDI [3, 6]: 0.214; PLK1 inhibition % ([4]; 1 × 5 mg siRNA/kg): 85%
CCCCC/C=C\C/C=C\CCCCCCCCOCC(CN1CCC(C)(C)C1)OCCOCCO[C@H]1CC[C@@]2(C)C(=CC[C@H]3[C@@H]4CC[C@H]([C@H](C)CCCC(C)C)[C@@]4(C)CC[C@@H]32)C1 (some centres unmarked) [E0026] |  |  | 105.8 nm | FVII inhib % [2, 6]: 95.1%; Final size (nm) [3, 6]: 87 nm; PDI [3, 6]: 0.23; PLK1 inhibition % ([4]; 1 × 5 mg siRNA/kg): 75%
CCCCC/C=C\C/C=C\CCCCCCCCOCC(CN1CCOCC1)OCCCOCCCO[C@H]1CC[C@@]2(C)C(=CC[C@H]3[C@@H]4CC[C@H]([C@H](C)CCCC(C)C)[C@@]4(C)CC[C@@H]32)C1 (some centres unmarked) [E0093] | 4.85 |  | 82.42 nm | PLK1 inhibition % ([4]; 1 × 10 mg siRNA/kg): 2%
CCCCCCCC/C=C\CCCCCCCCOCC(CN1CC[C@@H]2CCCC[C@H]2C1)OCCOCCO[C@H]1CC[C@@]2(C)C(=CC[C@H]3[C@@H]4CC[C@H]([C@H](C)CCCC(C)C)[C@@]4(C)CC[C@@H]32)C1 (some centres unmarked) [E0120] | 5.48 | 28% | 87 nm | 
CCCCCCCC/C=C\CCCCCCCCOCC(CN1CCOCC1)OCCOC(=O)CO[C@H]1CC[C@@]2(C)C(=CCC3[C@@H]4CC[C@H]([C@H](C)CCCC(C)C)[C@@]4(C)CC[C@@H]32)C1 (some centres unmarked) [E0128] | 5.01 | 23% | 83.47 nm | 
CCCCCCCC/C=C\CCCCCCCCOCC(CN1CCCCC1)OCCOC(=O)CCCC(=O)O[C@H]1CC[C@@]2(C)C(=CC[C@H]3[C@@H]4CC[C@H]([C@H](C)CCCC(C)C)[C@@]4(C)CC[C@@H]32)C1 (some centres unmarked) [E0151] | 6.06 | 25% | 103.8 nm | PLK1 inhibition % ([4]; 1 × 0.1 mg siRNA/kg): 7%
CCCCCCCC/C=C\CCCCCCCCOCC(CN1CCOCC1)OCCOCCOC(=O)CCC(=O)O[C@H]1CC[C@@]2(C)C(=CC[C@H]3[C@@H]4CC[C@H]([C@H](C)CCCC(C)C)[C@@]4(C)CC[C@@H]32)C1 (some centres unmarked) [E0152] | 5.38 | 18% | 121.3 nm | 
CCCCCCCC/C=C\CCCCCCCCOCOCC(CN1CCCCC1)OCCCOC(=O)CCC(=O)O[C@H]1CC[C@@]2(C)C(=CC[C@H]3[C@@H]4CC[C@H]([C@H](C)CCCC(C)C)[C@@]4(C)CC[C@@H]32)C1 (some centres unmarked) [E0160] | 6.05 | 38% | 100.8 nm | 
CCCCCCCC/C=C\CCCCCCCCOCC(CN1CCOCC1)OCCOCC(=O)OC1CC[C@@]2(C)C(=CCC3C2CC[C@@]2(C)C3CC[C@@H]2[C@H](C)CCCC(C)C)C1 (some centres unmarked) [E0167] | 5.21 | 23% | 86.57 nm | 
CCCCC/C=C\C/C=C\CCCCCCCCOCC(CN1CCCCC1)OCCCOC(=O)CCC(=O)O[C@H]1CC[C@@]2(C)C(=CC[C@H]3[C@@H]4CC[C@H]([C@H](C)CCCC(C)C)[C@@]4(C)CC[C@@H]32)C1 (some centres unmarked) [E0179] | 5.95 | 53% | 114.6 nm | 
